This is an account of results in patent publication US20050260183A1, “Treatment of surfaces populated by bacteria with a lucilia sericata extract” (priority 2002, published 2005).

For one experiment, the system named is BHL. The experiment is classed as biochemical, Pseudomonas aeruginosa.
In a further experiment the test system is OdDHL. It counts as biochemical, Pseudomonas aeruginosa.
For another experiment, the system named is E. coli D31. It counts as cell-based.

Read-outs that look alike come from different tables or passages of the source. Ends that are not written are not given here.

Regarding `O=S(=O)(F)Cc1ccccc1` [PMSF, phenylmethanesulphonyl fluoride], the “effect of pre-incubation of ES with inhibitor on BHL degradation” value with BHL is “degradation was prevented”. Also, the “effect of inhibitor on OdDHL degradation by ES” value in the experiment with OdDHL is “inhibited”.

With “Cecropin B (KWKVFKKIEKMGRNIRNGIVKAGPAIAVLGEAKAL; ends and bridges not checked; UniProt P01508 27-61, looked up) [Cecropin B (Sigma), anti-microbial standard]”, the antimicrobial plaque diameter in the experiment with E. coli D31 (2 μl Cecropin B at 10 μg/ml) came out at 4.25 mm; in the experiment with E. coli D31 (2 μl Cecropin B at 100 μg/ml), 8 mm.
